# Source: ChEMBL document CHEMBL4339189, “Dissymmetric pyridyl-substituted 3,5-bis(arylidene)-4-piperidones as anti-hepatoma agents by inhibiting NF-κB pathway activation” (Eur J Med Chem, 2019)
# Activity calls are given as the source filed them. The rule behind the calls is not given here.
# Tests used:
# HepG2 = test: Cytotoxicity against human HepG2 cells assessed as reduction in cell viability incubated for 24 hrs by MTT assay; assay type: functional, cell-based; conditions: HepG2, 24 h
# SMMC-7721 = test: Cytotoxicity against human SMMC7721 cells assessed as reduction in cell viability incubated for 24 hrs by MTT assay; assay type: functional, cell-based; conditions: SMMC-7721, 24 h
# RAW264.7 [1] = test: Antiinflammatory activity in mouse RAW264.7 cells assessed as inhibition of LPS-stimulated TNF-alpha production at 6.0 uM preincubated for 2 hrs followed by LPS stimulaton measured after 22 hrs by ELISA relative to control; assay type: functional
# [2] = Cytotoxicity against human HHL5 cells assessed as reduction in cell viability incubated for 24 hrs by MTT assay; assay type: cell-based; conditions: HHL-5, 24 h
# QGY-7703 = test: Cytotoxicity against human QGY7703 cells assessed as reduction in cell viability incubated for 24 hrs by MTT assay; assay type: functional, cell-based; conditions: QGY-7703, 24 h
# RAW264.7 [3] = test: Antiinflammatory activity in mouse RAW264.7 cells assessed as inhibition of LPS-stimulated IL-6 production 6.0 uM preincubated for 2 hrs followed by LPS stimulaton measured after 22 hrs by ELISA relative to control; assay type: functional
# RAW264.7 [4] = test: Cytotoxicity against mouse RAW264.7 cells assessed as reduction in cell viability at 6.0 uM incubated for 24 hrs by MTT assay; assay type: cell-based; conditions: raw264.7, 24 h
# L02 = test: Cytotoxicity against human LO2 cells assessed as reduction in cell viability incubated for 24 hrs by MTT assay; assay type: cell-based; conditions: L02, 24 h
SMILES,IC50 (HepG2),IC50 (SMMC-7721),inhibition (RAW264.7 [1]),IC50 [2],IC50 (QGY-7703),inhibition (RAW264.7 [3]),Activity (RAW264.7 [4]),IC50 (L02),inhibition at 6 µM (RAW264.7 [1]),inhibition (INH) (RAW264.7 [3])
COc1cc(/C=C2\CN(C)C/C(=C\c3cccnc3)C2=O)cc(OC)c1OC,9.52 µM,20.4 µM,Active,11.3 µM,4.3 µM,Active,Non-Toxic,14.4 µM,,
O=C1/C(=C/c2cccnc2)CN(S(=O)(=O)c2ccc([N+](=O)[O-])cc2)C/C1=C\c1ccccc1C(F)(F)F,9.37 µM,15.9 µM,Active,14.1 µM,7.66 µM,Active,Non-Toxic,15.7 µM,,
CC(=O)Nc1ccc(S(=O)(=O)N2C/C(=C\c3cccnc3)C(=O)/C(=C/c3ccccc3C(F)(F)F)C2)cc1,4.33 µM,9.83 µM,Active,> 20 µM,5.38 µM,Active,Non-Toxic,15.3 µM,,
CN1C/C(=C\c2cccnc2)C(=O)/C(=C/c2cc([N+](=O)[O-])ccc2F)C1,6.63 µM,6.17 µM,Active,14.2 µM,11.1 µM,Active,Non-Toxic,15.7 µM,,
Cc1ccc(S(=O)(=O)N2C/C(=C\c3cccnc3)C(=O)/C(=C/c3ccccc3F)C2)cc1,4.2 µM,10.3 µM,Active,15.3 µM,9.7 µM,Active,Non-Toxic,14.9 µM,,
Cc1ccc(S(=O)(=O)N2C/C(=C\c3cccnc3)C(=O)/C(=C/c3ccccc3C(F)(F)F)C2)cc1,2.93 µM,6.7 µM,Active,11.1 µM,6.17 µM,Active,Non-Toxic,12.3 µM,,
CN1C/C(=C\c2cccnc2)C(=O)/C(=C/c2ccccc2F)C1,4.81 µM,5.42 µM,Active,13.5 µM,4.47 µM,Active,Non-Toxic,15.9 µM,,
CN1C/C(=C\c2ccncc2)C(=O)/C(=C/c2ccccc2C(F)(F)F)C1,3.3 µM,4.1 µM,,10.4 µM,4.5 µM,,Non-Toxic,15.8 µM,< 30%,<30%
O=C1/C(=C/c2ccncc2)CN(S(=O)(=O)c2ccc(Br)cc2)C/C1=C\c1ccccc1F,9.3 µM,12.6 µM,inactive,> 20 µM,11.5 µM,inactive,Non-Toxic,19.4 µM,,
O=C1/C(=C/c2ccncc2)CNC/C1=C\c1ccccc1C(F)(F)F,6.13 µM,4.5 µM,Active,9.87 µM,4.9 µM,Active,Non-Toxic,13.4 µM,,
O=C1/C(=C/c2ccncc2)CN(S(=O)(=O)c2ccc(Cl)cc2)C/C1=C\c1ccccc1C(F)(F)F,7.19 µM,5.51 µM,,11 µM,12.7 µM,,Non-Toxic,14.9 µM,,
COc1cc(/C=C2\CN(C)C/C(=C\c3ccncc3)C2=O)cc(OC)c1OC,9.8 µM,9.13 µM,Active,12.3 µM,5.9 µM,Active,Non-Toxic,16.4 µM,,
O=C1/C(=C/c2ccccc2F)CNC/C1=C\c1ccccc1F,3.33 µM,8.8 µM,,14.5 µM,4.97 µM,,,10.2 µM,,
O=C1/C(=C/c2cccnc2)CN(S(=O)(=O)c2ccc(C(F)(F)F)cc2)C/C1=C\c1ccccc1F,2.4 µM,7.9 µM,Active,14.3 µM,4.5 µM,Active,Non-Toxic,11.3 µM,,
S=C(S)N1CCCC1,,,Active,,,Active,,,,
N#Cc1ccc(S(=O)(=O)N2C/C(=C\c3cccnc3)C(=O)/C(=C/c3ccccc3C(F)(F)F)C2)cc1,5.06 µM,9.65 µM,Active,11.2 µM,6.15 µM,Active,Non-Toxic,13.2 µM,,
COc1ccc(/C=C2\CN(C)C/C(=C\c3cccnc3)C2=O)c(OC)c1OC,5.16 µM,13.7 µM,Active,11.6 µM,2.63 µM,Active,Non-Toxic,13.6 µM,,
O=C1/C(=C/c2ccncc2)CN(S(=O)(=O)c2ccc([N+](=O)[O-])cc2)C/C1=C\c1ccccc1C(F)(F)F,13.4 µM,> 20 µM,,> 20 µM,9.73 µM,,Non-Toxic,18.6 µM,,
N#Cc1ccc(S(=O)(=O)N2C/C(=C\c3ccncc3)C(=O)/C(=C/c3ccccc3C(F)(F)F)C2)cc1,5.92 µM,9.61 µM,,19.7 µM,6.29 µM,,Non-Toxic,17.6 µM,,
O=C1/C(=C/c2ccncc2)CN(S(=O)(=O)c2ccc(Br)cc2)C/C1=C\c1ccccc1C(F)(F)F,14.5 µM,10.5 µM,,9.32 µM,7.06 µM,,Non-Toxic,12.6 µM,,
O=C1/C(=C/c2ccncc2)CN(S(=O)(=O)c2ccc(F)cc2)C/C1=C\c1ccccc1C(F)(F)F,4.01 µM,9.27 µM,,12 µM,7.7 µM,,Non-Toxic,12.9 µM,,
O=C1/C(=C/c2ccncc2)CN(S(=O)(=O)c2ccccc2)C/C1=C\c1ccccc1C(F)(F)F,7.02 µM,6.54 µM,,12.1 µM,6.21 µM,,Non-Toxic,12.3 µM,,
O=C1/C(=C/c2ccncc2)CN(S(=O)(=O)c2ccc(C(F)(F)F)cc2)C/C1=C\c1ccccc1C(F)(F)F,3.24 µM,3.84 µM,,11.7 µM,4.68 µM,,Non-Toxic,13.8 µM,,
Cc1ccc(S(=O)(=O)N2C/C(=C\c3ccncc3)C(=O)/C(=C/c3ccccc3C(F)(F)F)C2)cc1,4.64 µM,5.59 µM,,15.9 µM,5.09 µM,,Non-Toxic,12.8 µM,,
COc1cc(/C=C/C(=O)CC(=O)/C=C/c2ccc(O)c(OC)c2)ccc1O [CURCUMIN],17.4 µM,16.7 µM,,24.2 µM,23.9 µM,,,22.7 µM,,
CC(=O)Nc1ccc(S(=O)(=O)N2C/C(=C\c3ccncc3)C(=O)/C(=C/c3ccccc3C(F)(F)F)C2)cc1,4.84 µM,5.76 µM,,8.87 µM,5.56 µM,,Non-Toxic,10.1 µM,,
